According to ChEMBL document CHEMBL5512658, “Development of benzimidazole-based compounds as novel capsid assembly modulators for the treatment of HBV infection” (Eur J Med Chem, 2024):
Activity calls are given as the source filed them. The calls are words filed in the database; no cut-off is given here.

Columns and labels:
Core antigen [1] = target: T1, Core antigen (Hepatitis B virus, UniProt Q03732); experiment: Inhibition of Hepatitis B virus core protein expressed in HBC cells derived from HEK293T cells assessed as reduction in HBcAg level incubated for 6 hrs by Nano-glo luciferase assay; format: cell-based; conditions: read-out: IC50
HepG2 = experiment: Cytotoxicity against human HepG2 cells measured after 3 days by resazurin staining based analysis; format: functional; conditions: HepG2, 72 h, time 3 day
Hepatitis B virus [2] = experiment: Antiviral activity against HBV infected in human HePAD38 cells assessed as reduction in intracellular core HBV DNA level media replaced for every 2 to 3 days incubated for 7 days by Western blot analysis; format: functional, organism-based
[3] = system: Hepatitis B virus core protein; experiment: Selectivity index, ratio of CC50 for human HepG2 cells to IC50 for Hepatitis B virus core protein expressed in HEK293T cells; format: toxicity, cell-based; conditions: read-out: Ratio CC50/IC50
Hepatitis B virus [4] = experiment: Antiviral activity against HBV infected in human HePAD38 cells assessed as inhibition of HBV capsid assembly by measuring secretion of particles containing HBV DNA at 5 uM incubated for 7 days by Southern blot analysis; format: functional, organism-based; conditions: time 7.0 day
Hepatitis B virus [5] = experiment: Antiviral activity against HBV infected in human HePAD38 cells assessed as reduction HBV capsid level at 5 uM media replaced for every 2 to 3 days incubated for 7 days by Western blot analysis; format: functional, organism-based; conditions: time 7.0 day
Hepatitis B virus [6] = experiment: Antiviral activity against HBV infected in human HepAD38 cells assessed as inhibition of viral replication by Southern blot analysis; format: functional, organism-based
Hepatitis B virus [7] = experiment: Antiviral activity against HBV infected in human HePAD38 cells assessed as decrease in HBV DNA level at 2.5 to 20 uM by q-PCR analysis; format: functional, organism-based; conditions: dose 2.5-20 µM
Hepatitis B virus [8] = experiment: Antiviral activity against HBV infected in BALB/c mouse hydrodynamic injection model hydrodynamically injected with replication-competent HBV DNA plasmid assessed as reduction in HBV DNA copy numbers in plasma at 100 mg/kg, po administered twice daily for 14 days; format: functional, organism-based; conditions: time 14.0 day
Hepatitis B virus [9] = experiment: Antiviral activity against HBV infected in BALB/c mouse hydrodynamic injection model hydrodynamically injected with replication-competent HBV DNA plasmid assessed as decrease in HBsAG level in mouse serum at 100 mg/kg, po administered twice daily for 7 days by ELISA method; format: functional, organism-based; conditions: time 7.0 day
[10] = Toxicity in BALB/c mouse at 100 mg/kg, po administered twice daily for 14 days; format: organism-based; conditions: in vivo, 336 h, time 14 day
Hepatitis B virus [11] = experiment: Antiviral activity against HBV infected in human HepAD38 cells assessed as inhibition of viral replication incubated for 6 days by qPCR analysis; format: functional, organism-based; conditions: HePAD38, 144 h
Hepatitis B virus [12] = experiment: Antiviral activity against HBV infected in human HepAD38 cells assessed as inhibition of viral replication; format: functional, organism-based
Core antigen [13] = target: T1, Core antigen; experiment: Inhibition of Hepatitis B virus core protein expressed in HBC cells derived from HEK293T cells assessed as reduction in HBcAg level […] incubated for 6 hrs by Nano-glo luciferase assay; format: cell-based

T1 sequence (Q03732 whole entry): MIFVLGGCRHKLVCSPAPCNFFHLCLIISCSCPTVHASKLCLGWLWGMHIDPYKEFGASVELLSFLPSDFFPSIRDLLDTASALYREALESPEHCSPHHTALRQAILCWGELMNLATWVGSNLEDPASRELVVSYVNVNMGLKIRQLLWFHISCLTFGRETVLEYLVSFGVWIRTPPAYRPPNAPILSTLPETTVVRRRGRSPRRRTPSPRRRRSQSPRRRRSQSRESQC

Compound | IC50 (Core antigen [1]) [µM] | CC50 (HepG2) [µM] | selectivity ratio [3] | Activity (Hepatitis B virus [4]) | Activity (Hepatitis B virus [5]) | other results
COc1ccc(Cc2nc3ccccc3n2C(C)=O)cc1 | 1.57 | 42.8 | 27.2 | Active | – | EC50 (Hepatitis B virus [2]): 16.1 µM
COc1ccc(CCc2nc3ccccc3[nH]2)cc1 | 34.3 | > 100 | > 2.91 | Active | Active | –
COc1ccc(Cc2nc3ccccc3n2CC(O)COc2ccccc2)cc1 (centres undefined) | 1.99 | 12.3 | 6.18 | – | – | EC50 (Hepatitis B virus [2]): 0.07 µM
OCCn1c(Sc2ccc(Br)cc2)nc2ccccc21 | 2.01 | 71.8 | 35.7 | – | – | EC50 (Hepatitis B virus [2]): 1.99 µM
CCOC(=O)C1=C(CN2CCOCC2)NC(c2nccs2)=N[C@H]1c1ccc(F)cc1Br | – | – | – | – | – | EC50 (Hepatitis B virus [6]): 0.0622 µM
OCCn1c(Sc2ccc(Cl)cc2)nc2ccccc21 | 3.6 | 50.7 | 14.1 | – | – | EC50 (Hepatitis B virus [2]): 6.37 µM
COc1ccc(Cc2nc3ccccc3[nH]2)cc1 | 2.05 | > 100 | > 48.8 | Active | – | EC50 (Hepatitis B virus [2]): 11.9 µM
COc1ccc(Cc2nc3ccccc3n2CCCCCO)cc1 | 0.95 | 29.5 | 31.1 | Active | Active | EC50 (Hepatitis B virus [2]): 15.9 µM
COc1ccc(Sc2nc3ccccc3[nH]2)cc1 | 1.08 | 8.13 | 7.53 | Active | Active | EC50 (Hepatitis B virus [2]): 2 µM
COc1ccc(Sc2nc3ccccc3n2CCO)cc1 | 0.51 | 84.3 | 165 | Active | Active | EC50 (Hepatitis B virus [2]): 2.24 µM; Activity (Hepatitis B virus [7]): Active; Activity (Hepatitis B virus [8]): Active; Activity (Hepatitis B virus [9]): Active; Activity [10]: Non-Toxic
COc1ccccc1/C(Br)=C(/NC(=O)c1ccc([N+](=O)[O-])cc1)C(=O)N1CCCCC1 | – | – | – | – | – | EC50 (Hepatitis B virus [11]): 0.2 µM
COCCCn1c(Cc2ccc(OC)cc2)nc2ccccc21 | 9.65 | > 100 | > 10.4 | Active | Active | –
COc1ccc(Cc2nc3ccccc3n2CCCCCCO)cc1 | 3.36 | 30.3 | 9.02 | – | Active | –
COc1ccc(CCCc2nc3ccccc3[nH]2)cc1 | 22.8 | 47 | 2.06 | Active | Active | –
COc1ccc(Sc2nc3ccccc3n2CCCCCO)cc1 | 0.6 | > 100 | > 167 | Active | Active | EC50 (Hepatitis B virus [2]): 5.7 µM
CCOC(=O)n1c(Cc2ccc(OC)cc2)nc2ccccc21 | 2.18 | 44.2 | 20.3 | Active | Active | –
COc1ccc(Cc2nc3ccccc3n2C)cc1 | 4.85 | 22.1 | 4.55 | Active | Active | –

Compound | IC50 (Core antigen [1]) [µM] | CC50 (HepG2) [µM] | selectivity ratio [3] | Activity (Hepatitis B virus [4]) | Activity (Hepatitis B virus [5]) | other results
O=C(NCc1cc(F)c(F)c(F)c1)c1ccc(F)c(S(=O)(=O)N2CCC(O)CC2)c1 | – | – | – | – | – | EC50 (Hepatitis B virus [12]): 0.29 µM
COC(=O)C1=C(C)NC(c2ncc(F)cc2F)=N[C@H]1c1ccc(F)cc1Cl | – | – | – | – | – | EC50 (Hepatitis B virus [12]): 0.0243 µM
COc1ccc(Cc2nc3ccccc3n2CCCO)cc1 | 4.17 | > 100 | > 24 | Active | – | –
CCCCCn1c(Cc2ccc(OC)cc2)nc2ccccc21 | 7.63 | 46.5 | 6.1 | – | – | –
Fc1cc(F)cc(Sc2nc3ccccc3[nH]2)c1 | 19.7 | > 100 | > 5.07 | – | – | –
COc1ccc(Cc2nc3ccccc3n2CCCCO)cc1 | 2.45 | 34.4 | 14.1 | Active | Active | –
COc1ccc(Cc2nc3ccccc3n2CCCOC(C)=O)cc1 | 14 | > 100 | > 7.15 | Active | – | –
COc1ccc(Cc2nc3ccccc3n2CC(O)CO)cc1 (centres undefined) | 3.07 | > 100 | > 32.6 | – | – | –
COc1ccc(Cc2nc3ccccc3s2)cc1 | – | 32.6 | – | – | – | IC50 (Core antigen [13]): Not Active
COc1ccc(-c2nc3ccccc3[nH]2)cc1 | – | 10.3 | – | – | – | IC50 (Core antigen [13]): Not Active
CCn1c(Cc2ccc(OC)cc2)nc2ccccc21 | 4.51 | 29.5 | 6.55 | – | – | –
CCCCn1c(Cc2ccc(OC)cc2)nc2ccccc21 | 6.48 | > 100 | > 15.4 | – | – | –
OCCn1c(Sc2ccc(F)cc2)nc2ccccc21 | 22.2 | 84.7 | 3.82 | – | – | –
COc1ccc(Cc2nc3ccccc3n2CCO)cc1 | 2.37 | > 100 | > 42.2 | Active | Active | –
Clc1ccc(Sc2nc3ccccc3[nH]2)cc1Cl | 11.1 | > 100 | > 9.03 | – | – | –
COc1ccc(Cc2nc3ccccc3n2CCCBr)cc1 | 7.85 | 26.2 | 3.34 | – | – | –
